Test [1] concerns human small lung cancer cell line H2171. The experiment in a line: Cell Viability Assay (ATPlite). The format is cell-based. The conditions noted are these: Table 2, compounds of FIG. 1, H2171 cells, three days, ATPlite, calculated IC50 class, read-out: H2171 Activity. A digest of the protocol:
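H2171 cells were plated at 20,000 cells/mL and dosed immediately by pin transfer with a 10-point dose series in DMSO. After three days at 37° C, ATPlite luminescence served as the viability readout.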

Test [2] deals with T1, c-Myc/Max/Ebox DNA (Homo sapiens, UniProt P01106).
T1 construct: his6 (cleaved yes)
T1 sequence (P01106 whole entry): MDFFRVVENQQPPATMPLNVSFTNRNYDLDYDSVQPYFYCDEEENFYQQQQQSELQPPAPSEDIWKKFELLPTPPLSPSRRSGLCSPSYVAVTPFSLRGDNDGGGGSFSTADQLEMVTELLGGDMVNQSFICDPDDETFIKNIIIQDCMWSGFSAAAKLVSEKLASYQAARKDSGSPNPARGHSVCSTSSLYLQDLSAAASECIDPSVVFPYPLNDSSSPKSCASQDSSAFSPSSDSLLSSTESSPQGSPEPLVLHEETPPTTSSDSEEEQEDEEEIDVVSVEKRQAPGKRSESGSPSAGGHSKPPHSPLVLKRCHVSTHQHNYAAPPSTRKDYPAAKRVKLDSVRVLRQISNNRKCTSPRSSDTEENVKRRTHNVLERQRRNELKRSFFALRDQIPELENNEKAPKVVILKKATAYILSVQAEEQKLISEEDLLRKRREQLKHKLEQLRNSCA
The experiment in a line: c-Myc/Max/Ebox DNA AlphaScreen Assay. The format is binding. The conditions noted are these: Table 2, compounds of FIG. 1; calculated IC50 class. A digest of the protocol: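 Compounds were preincubated with free c-Myc (20 nM), biotinylated single-Ebox DNA (10 nM) and Ni acceptor beads before his6-Max (5 nM) and streptavidin donor beads were added. Buffer was 50 mM HEPES pH 8.0, 150 mM NaCl, BSA, Tween20, glycogen and DTT, with DMSO ≤2%. After 2 h incubation, AlphaScreen signal was read at 680 nm excitation and 520–620 nm emission.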

Results on 29 molecules are retold here after patent publication US10787444B2, “Compounds for the modulation of myc activity” (Syros Pharmaceuticals, Inc., priority 2015, dated 2020).

Read-outs that look alike come from different tables or passages of the source. A value given as a limit tells only on which side of the number the result lay.

As to `COCCNCCC(=O)Nc1sc2c(c1-c1nc3cc(-c4cnn(C)c4)ccc3s1)CC(C)NC2C` (single isomer, unassigned) [Compound 567, N-(5,7-Dimethyl-3-(5-(1-methyl-1H-pyrazol-4-yl)benzo[d]thiazol-2-yl)-4,5,6,7-tetrahydrothieno[2,3-c]pyridin-2-yl)-3-((2-methoxyethyl)amino)propanamide], the values for the IC50 in test [1] and in test [2] were less than 300 nM and 1000 to 10000 nM, respectively.
For `COCCNCCC(=O)Nc1sc2c(c1-c1nc3cc(-c4ccncc4)ccc3s1)CCNC2C` (single isomer, unassigned) [Compound 569, 3-((2-Methoxyethyl)amino)-N-(7-methyl-3-(5-(pyridin-4-yl)benzo[d]thiazol-2-yl)-4,5,6,7-tetrahydrothieno[2,3-c]pyridin-2-yl)propanamide], in that order: 1000 to 10000 nM and 1000 to 10000 nM.
As for `CC[C@H](C)NCCC(=O)Nc1sc2c(c1-c1nc3cc(C(F)(F)F)ccc3s1)CC(C)NC2C` (single isomer, unassigned) [Compound 584], the IC50 was less than 300 nM in test [1] (Homo sapiens, NCI-H2171, 72 h) and less than 300 nM in test [2].
Regarding `CC[C@H](C)NCCC(=O)Nc1sc2c(c1-c1nc3cc(C(F)(F)F)ccc3s1)CC(C)NC2C` (single isomer, unassigned) [Compound 585], the IC50 in test [1] and in test [2] was less than 300 nM throughout.
Consider `CC[C@H](C)NCCC(=O)Nc1sc2c(c1-c1nc3cc(C(F)(F)F)ccc3s1)CC(C)NC2C` (single isomer, unassigned) [Compound 586], for which the IC50 was less than 300 nM in test [1] and more than 10000 nM in test [2].
On the same counts, the results for `CC[C@H](C)NCCC(=O)Nc1sc2c(c1-c1nc3cc(C(F)(F)F)ccc3s1)CC(C)NC2C` (single isomer, unassigned) [Compound 587] are 300 to 1000 nM and more than 10000 nM.
For `CC[C@H](C)NCCC(=O)Nc1sc2c(c1-c1nc3ccccc3s1)CC(C)NC2C` (single isomer, unassigned) [Compound 620], in that order: 1000 to 10000 nM and 1000 to 10000 nM.
For `CC[C@H](C)NCCC(=O)Nc1sc2c(c1-c1nc3ccccc3s1)CC(C)NC2C` (single isomer, unassigned) [Compound 621], in that order: 1000 to 10000 nM and more than 10000 nM.
With `CC[C@H](C)NCCC(=O)Nc1sc2c(c1-c1nc3ccccc3s1)CC(C)NC2C` (single isomer, unassigned) [Compound 624], the IC50 in test [1] and in test [2] was less than 300 nM each time.
`CC(C)N1CCc2c(sc(NC(=O)CCNCc3cnn(C)c3)c2-c2nc3ccccc3s2)C1` [Compound 100, N-(3-(benzo[d]thiazol-2-yl)-6-isopropyl-4,5,6,7-tetrahydrothieno[2,3-c]pyridin-2-yl)-3-(((1-methyl-1H-pyrazol-4-yl)methyl)amino)propanamide]: the IC50 in test [1] (Homo sapiens, NCI-H2171, 72 h) is less than 300 nM; in test [2], 300 to 1000 nM.
As to `CCC(C)N(C)CCC(=O)Nc1sc2c(c1-c1nc3ccccc3s1)CCN(C(C)C)C2` (stereo not shown) [Compound 122], the IC50 in test [1] is 300 to 1000 nM; in test [2], less than 300 nM.
Regarding `CCC(C)NCCC(=O)Nc1sc2c(c1-c1nc3cc(F)ccc3s1)CCNC2` (stereo not shown) [Compound 123, 3-(sec-butylamino)-N-(3-(5-fluorobenzo[d]thiazol-2-yl)-4,5,6,7-tetrahydrothieno[2,3-c]pyridin-2-yl) propanamide], the IC50 was less than 300 nM in test [1] (Homo sapiens, NCI-H2171, 72 h) and less than 300 nM in test [2].
For `CCC(C)NCCC(=O)Nc1sc2c(c1-c1nc3ccccc3s1)CCNC2` (stereo not shown) [Compound 124, N-(3-(benzo[d]thiazol-2-yl)-4,5,6,7-tetrahydrothieno[2,3-c]pyridin-2-yl)-3-(sec-butylamino)propanamide], the IC50 in test [1] (Homo sapiens, NCI-H2171, 72 h) is less than 300 nM; in test [2] it was less than 300 nM.
Turning to `CCC(C)NCCC(=O)Nc1sc2c(c1-c1nc3cc(C(F)(F)F)ccc3s1)CCNC2` (stereo not shown) [Compound 125, 3-(sec-butylamino)-N-(3-(5-(trifluoromethyl)benzo[d]thiazol-2-yl)-4,5,6,7-tetrahydrothieno[2,3-c]pyridin-2-yl) propanamide], the IC50 in test [1] (Homo sapiens, NCI-H2171, 72 h) is 300 to 1000 nM; in test [2], 300 to 1000 nM.
Take `CCC(C)NCCC(=O)Nc1sc2c(c1-c1nc3cc(F)ccc3s1)CCN(C(C)C)C2` (stereo not shown) [Compound 126, 3-(sec-butylamino)-N-(3-(5-fluorobenzo[d]thiazol-2-yl)-6-isopropyl-4,5,6,7-tetrahydrothieno[2,3-c]pyridin-2-yl)propanamide]: the IC50 in test [1] (Homo sapiens, NCI-H2171, 72 h) was less than 300 nM; in test [2], less than 300 nM.
For `CC(C)N1CCc2c(sc(NC(=O)CCNC(C)(C)C)c2-c2nc3ccccc3s2)C1` [Compound 127, N-(3-(benzo[d]thiazol-2-yl)-6-isopropyl-4,5,6,7-tetrahydrothieno[2,3-c]pyridin-2-yl)-3-(tert-butylamino)propanamide], the IC50 is 300 to 1000 nM in test [1] (Homo sapiens, NCI-H2171, 72 h) and 300 to 1000 nM in test [2].
As to `CNCCC(=O)Nc1sc2c(c1-c1nc3ccccc3s1)CCNC2` [Compound 128, N-(3-(benzo[d]thiazol-2-yl)-4,5,6,7-tetrahydrothieno[2,3-c]pyridin-2-yl)-3-(methylamino)propanamide], the IC50 in test [1] (Homo sapiens, NCI-H2171, 72 h) was less than 300 nM; in test [2], less than 300 nM.
Turning to `CC(C)NCCC(=O)Nc1sc2c(c1-c1nc3ccccc3s1)CCNC2` [Compound 129, N-(3-(benzo[d]thiazol-2-yl)-4,5,6,7-tetrahydrothieno[2,3-c]pyridin-2-yl)-3-(isopropylamino)propanamide], the IC50 in test [1] (Homo sapiens, NCI-H2171, 72 h) was less than 300 nM; in test [2], less than 300 nM.
For `CN(C)CCC(=O)Nc1sc2c(c1-c1nc3ccccc3s1)CCNC2` [Compound 130, N-(3-(benzo[d]thiazol-2-yl)-4,5,6,7-tetrahydrothieno[2,3-c]pyridin-2-yl)-3-(dimethylamino)propanamide], the IC50 was less than 300 nM in test [1] (Homo sapiens, NCI-H2171, 72 h) and less than 300 nM in test [2].
As for `CC(C)(C)NCCC(=O)Nc1sc2c(c1-c1nc3ccccc3s1)CCNC2` [Compound 131, N-(3-(benzo[d]thiazol-2-yl)-4,5,6,7-tetrahydrothieno[2,3-c]pyridin-2-yl)-3-(tert-butylamino)propanamide], the IC50 was 300 to 1000 nM in test [1] (Homo sapiens, NCI-H2171, 72 h) and less than 300 nM in test [2].
For `CC(C)NCCC(=O)Nc1sc2c(c1-c1nc3ccccc3s1)CCN(C(C)C)C2` [Compound 132, N-(3-(benzo[d]thiazol-2-yl)-6-isopropyl-4,5,6,7-tetrahydrothieno[2,3-c]pyridin-2-yl)-3-(isopropylamino)propanamide], in that order: 300 to 1000 nM and 300 to 1000 nM.
On the same counts, the results for `CC(C)N1CCc2c(sc(NC(=O)CCN3C(=O)C=CC3=O)c2-c2nc3ccccc3s2)C1` [Compound 133, N-(3-(benzo[d]thiazol-2-yl)-6-isopropyl-4,5,6,7-tetrahydrothieno[2,3-c]pyridin-2-yl)-3-(2,5-dioxo-2,5-dihydro-1H-pyrrol-1-yl)propanamide] are 1000 to 10000 nM and more than 10000 nM.
On the same counts, the results for `COCCNCCC(=O)Nc1sc2c(c1-c1nc3ccccc3s1)CCNC2` [Compound 134, N-(3-(benzo[d]thiazol-2-yl)-4,5,6,7-tetrahydrothieno[2,3-c]pyridin-2-yl)-3-((2-methoxyethyl)amino)propanamide] are less than 300 nM and less than 300 nM.
Regarding `CC[C@H](C)NCCC(=O)Nc1sc2c(c1-c1nc3ccccc3s1)CCN(C(C)C)C2` [Compound 135, (S)—N-(3-(benzo[d]thiazol-2-yl)-6-isopropyl-4,5,6,7-tetrahydrothieno[2,3-c]pyridin-2-yl)-3-(sec-butylamino)propanamide], the IC50 in test [1] (Homo sapiens, NCI-H2171, 72 h) is less than 300 nM; in test [2], less than 300 nM.
For the molecule `O=C(CCNCCc1cccnc1)Nc1sc2c(c1-c1nc3ccccc3s1)CCNC2` [Compound 136, N-(3-(benzo[d]thiazol-2-yl)-4,5,6,7-tetrahydrothieno[2,3-c]pyridin-2-yl)-3-((2-(pyridin-3-yl)ethyl)amino) propanamide], the IC50 in test [1] (Homo sapiens, NCI-H2171, 72 h) was 300 to 1000 nM; in test [2] it was 1000 to 10000 nM.
As for `CCC(C)NCCC(=O)Nc1sc2c(c1-c1nc3ccccc3s1)CCN(C1COC1)C2` (stereo not shown) [Compound 137, N-(3-(benzo[d]thiazol-2-yl)-6-(oxetan-3-yl)-4,5,6,7-tetrahydrothieno[2,3-c]pyridin-2-yl)-3-(sec-butylamino)propanamide], the IC50 in test [1] (Homo sapiens, NCI-H2171, 72 h) is more than 10000 nM; in test [2], 1000 to 10000 nM.
On the same counts, the results for `CC[C@@H](C)NCCC(=O)Nc1sc2c(c1-c1nc3ccccc3s1)CCN(C(C)C)C2` [Compound 140, (R)—N-(3-(benzo[d]thiazol-2-yl)-6-isopropyl-4,5,6,7-tetrahydrothieno[2,3-c]pyridin-2-yl)-3-(sec-butylamino)propanamide] are less than 300 nM and less than 300 nM.
On the same counts, the results for `CCC(C)NCCC(=O)Nc1sc2c(c1-c1nc3cc(C(F)(F)F)ccc3s1)CCN(C(C)C)C2` (stereo not shown) [Compound 142, 3-(sec-butylamino)-N-(6-isopropyl-3-(5-(trifluromethyl)benzo[d]thiazol-2-yl)-4,5,6,7-tetrahydrothieno[2,3-c]pyridin-2-yl)propanamide] are less than 300 nM and less than 300 nM.
For `CC[C@H](C)NCCC(=O)Nc1sc2c(c1-c1nc3cc(C(F)(F)F)ccc3s1)CCNC2` [Compound 152, (S)-3-(sec-butylamino)-N-(3-(5-(trifluoromethyl)benzo[d]thiazol-2-yl)-4,5,6,7-tetrahydrothieno[2,3-c]pyridin-2-yl)propanamide], in that order: less than 300 nM and less than 300 nM.
